Laboratory results from patent US20190375786A1, “STABLE PEPTIDES AND METHODS OF USE THEREOF” (Fred Hutchinson Cancer Research Center, priority 2016, published 2019).
Positions of bridges follow the written chain, without caps; N, C: chain ends. Residues, ends and D or L forms follow the SMILES beside them.

Legend:
trypsin = trypsin (Sus scrofa, UniProt P00761); assay: Trypsin digestion resistance of soluble peptide, RP-HPLC; assay type: in vitro ADME, porcine; parameters: purchased Sigma Aldrich 6567; details: 500 U/ml trypsin, 30 minutes at 37.5° C.; HPLC peak vs untreated peptide
trypsin, sequence (P00761 9-231): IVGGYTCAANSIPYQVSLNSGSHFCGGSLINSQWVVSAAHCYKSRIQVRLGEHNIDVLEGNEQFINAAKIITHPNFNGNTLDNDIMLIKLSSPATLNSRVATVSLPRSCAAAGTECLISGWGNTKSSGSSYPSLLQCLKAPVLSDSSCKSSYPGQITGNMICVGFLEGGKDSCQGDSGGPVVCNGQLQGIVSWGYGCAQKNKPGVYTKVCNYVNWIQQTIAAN
Outline: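 Read-out was RP-HPLC (C-18, water/acetonitrile with 0.1% TFA, 5-45% over 10 min) of peptide left after trypsin treatment. Digest: 12.5 μg peptide, 500 U/ml porcine trypsin, PBS, 37.5° C for 30 min, stopped by soybean trypsin inhibitor; samples then reduced (10 mM DTT) or left non-reduced.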

pepsin = pepsin (Sus scrofa, UniProt P00791); assay: Pepsin digestion resistance in simulated gastric fluid, RP-HPLC; assay type: in vitro ADME, porcine; parameters: purchased Sigma Aldrich P7012; details: 500 U/ml pepsin in SGF pH 1.05, 30 minutes at 37.5° C.; HPLC peak vs untreated peptide
pepsin, sequence (P00791 60-385): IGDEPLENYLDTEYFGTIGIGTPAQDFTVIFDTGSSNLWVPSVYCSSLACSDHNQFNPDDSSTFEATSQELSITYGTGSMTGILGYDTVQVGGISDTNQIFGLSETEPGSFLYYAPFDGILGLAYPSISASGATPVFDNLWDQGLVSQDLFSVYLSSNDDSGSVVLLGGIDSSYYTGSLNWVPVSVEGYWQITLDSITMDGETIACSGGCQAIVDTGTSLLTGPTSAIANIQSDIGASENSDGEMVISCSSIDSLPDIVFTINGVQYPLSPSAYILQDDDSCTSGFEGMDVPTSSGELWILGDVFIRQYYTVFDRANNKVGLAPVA
Outline: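 Digestion resistance read by reversed-phase HPLC (C-18, 0.1% TFA, 5–45% acetonitrile over 10 min; 214/280 nm) after 12.5 μg peptide spent 30 min at 37.5 °C in pH 1.05 simulated gastric fluid, with or without 500 U/ml pepsin. Some samples quenched with Tris base and DTT.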

Row | SMILES | Resistance to Trypsin (500 U/ml) (trypsin) | Resistance to Pepsin (500 U/ml) (pepsin)
1 | CC[C@H](C)[C@H](NC(=O)CNC(=O)[C@@H](NC(=O)[C@H](CO)NC(=O)[C@@H](NC(=O)[C@H](CO)NC(=O)CN)[C@@H](C)CC)[C@@H](C)CC)C(=O)N[C@@H](CCCCN)C(=O)N[C@H]1CSSC[C@@H]2NC(=O)[C@H](Cc3ccc(O)cc3)NC(=O)CNC(=O)[C@H]([C@@H](C)O)NC(=O)[C@H](Cc3ccccc3)NC(=O)[C@H](Cc3ccc(O)cc3)NC(=O)[C@H](CCCCN)NC(=O)[C@H](CCCNC(=N)N)NC(=O)[C@H]([C@@H](C)CC)NC(=O)[C@H](CCCNC(=N)N)NC(=O)[C@@H]3CSSC[C@@H](C(=O)N[C@@H](CO)C(=O)NCC(=O)O)NC(=O)[C@H](Cc4c[nH]cn4)NC(=O)[C@H](CSSC[C@H](NC(=O)[C@H](CC(C)C)NC(=O)[C@H](CC(=O)O)NC(=O)[C@H]([C@@H](C)CC)NC(=O)[C@H](CO)NC(=O)[C@@H]4CCCN4C(=O)[C@H](CO)NC1=O)C(=O)N[C@@H](CCC(=O)O)C(=O)NCC(=O)N[C@@H](CCC(N)=O)C(=O)N3)NC(=O)[C@H]([C@@H](C)O)NC(=O)[C@H](CC(=O)O)NC(=O)CNC(=O)[C@H](CO)NC2=O [compound 3] (H-GSISIGIKCSPSIDLCEGQCRIRKYFTGYCSGDTCHCSG-OH; disulfide 9-30, 16-35, 20-37) | Low (A peptide classified as low indicates that the majority (over 75%) of the HPLC peak of the treated peptide disappeared as compared to the HPLC peak of the untreated peptide) | Moderate (A peptide classified as medium indicates that about half (between 25% and 75%) of the HPLC peak of the treated peptide disappeared as compared to the HPLC peak of the untreated peptide)
2 | CC(C)[C@H](NC(=O)[C@H](CO)NC(=O)CN)C(=O)N[C@@H](CO)C(=O)N[C@H]1CSSC[C@@H]2NC(=O)[C@H](CCCCN)NC(=O)[C@H](C)NC(=O)[C@H](CCCNC(=N)N)NC(=O)[C@H](CCC(N)=O)NC(=O)[C@H](CC(=O)O)NC(=O)[C@H](CCCCN)NC(=O)[C@H]([C@@H](C)O)NC(=O)[C@H](C)NC(=O)[C@@H]3CSSC[C@@H](C(=O)N[C@@H](CCC(=O)O)C(=O)N4CCC[C@H]4C(=O)N[C@@H](CCCCN)C(=O)O)NC(=O)[C@H](C(C)C)NC(=O)[C@H](CSSC[C@H](NC(=O)[C@H](CC(=O)O)NC(=O)[C@H](CCC(=O)O)NC1=O)C(=O)N1CCC[C@H]1C(=O)N[C@@H](CCC(=O)O)C(=O)N[C@@H](Cc1c[nH]cn1)C(=O)N3)NC(=O)[C@H](CCCNC(=N)N)NC(=O)[C@H](CC(=O)O)NC(=O)[C@H](CC(N)=O)NC(=O)[C@H](CC(=O)O)NC2=O [compound 54] (H-GSVSCEDCPEHCATKDQRAKCDNDRCVCEPK-OH; disulfide 5-21, 8-26, 12-28) | Low (A peptide classified as low indicates that the majority (over 75%) of the HPLC peak of the treated peptide disappeared as compared to the HPLC peak of the untreated peptide) | High (A peptide classified as high indicates that the majority (at least 75%) of the HPLC peak of the treated peptide is still present as compared to the HPLC peak of the untreated peptide)
3 | CC[C@H](C)[C@@H]1NC(=O)[C@@H]2CSSC[C@@H]3NC(=O)[C@H](CCC(N)=O)NC(=O)[C@H](CO)NC(=O)[C@H]([C@@H](C)O)NC(=O)[C@H](CC(N)=O)NC(=O)[C@H](CO)NC(=O)[C@@H](NC(=O)[C@H](CCCCN)NC(=O)[C@H](CCCCN)NC(=O)[C@H](CC(N)=O)NC(=O)[C@@H](NC(=O)[C@H](CO)NC(=O)[C@@H](NC(=O)[C@H](CCC(N)=O)NC(=O)[C@H](CO)NC(=O)CN)C(C)C)[C@@H](C)O)CSSC[C@H](NC(=O)[C@H](CCCCN)NC(=O)CNC(=O)[C@H](C)NC(=O)[C@H](C)NC(=O)[C@H](C(C)C)NC(=O)CNC(=O)[C@H](C(C)C)NC(=O)[C@H](C(C)C)NC(=O)[C@H](CCCCN)NC(=O)[C@H](CCC(=O)O)NC(=O)[C@H](CSSC[C@@H](C(=O)N[C@@H](Cc4ccc(O)cc4)C(=O)N4CCC[C@H]4C(=O)O)NC1=O)NC(=O)[C@H]([C@@H](C)O)NC(=O)[C@H](CCCCN)NC(=O)[C@H](Cc1ccc(O)cc1)NC3=O)C(=O)N[C@@H](CCSC)C(=O)N[C@@H](CC(N)=O)C(=O)NCC(=O)N[C@@H](CCCCN)C(=O)N2 [compound 18] (H-GSQVSTNKKCSNTSQCYKTCEKVVGVAAGKCMNGKCICYP-OH; disulfide 10-31, 16-36, 20-38) | Low (A peptide classified as low indicates that the majority (over 75%) of the HPLC peak of the treated peptide disappeared as compared to the HPLC peak of the untreated peptide) | High (A peptide classified as high indicates that the majority (at least 75%) of the HPLC peak of the treated peptide is still present as compared to the HPLC peak of the untreated peptide)
4 | CC[C@H](C)[C@@H]1NC(=O)[C@@H]2CSSC[C@H](NC(=O)[C@@H](NC(=O)[C@H](C)NC(=O)[C@H](CO)NC(=O)CN)C(C)C)C(=O)N[C@@H](CC(N)=O)C(=O)N[C@@H](CC(C)C)C(=O)N[C@@H](CCCCN)C(=O)N[C@@H](CCCNC(=N)N)C(=O)N[C@H]3CSSC[C@H](NC(=O)[C@H](CCCCN)NC(=O)[C@H](CC(=O)O)NC(=O)CNC1=O)C(=O)N[C@@H](CCC(=O)O)C(=O)N[C@H](C(=O)N[C@H](C(=O)N[C@@H](CCCCN)C(=O)N[C@@H](Cc1c[nH]cn1)C(=O)NCC(=O)O)C(C)C)CSSC[C@H](NC(=O)[C@H](CO)NC(=O)[C@H](CC(C)C)NC(=O)[C@H](CCC(N)=O)NC3=O)C(=O)N[C@@H](CCCNC(=N)N)C(=O)N[C@@H](CO)C(=O)N[C@@H](CC(C)C)C(=O)NCC(=O)N[C@@H](CC(C)C)C(=O)N[C@@H](CC(C)C)C(=O)NCC(=O)N[C@@H](CCCCN)C(=O)N2 [compound 8] (H-GSAVCNLKRCQLSCRSLGLLGKCIGDKCECVKHG-OH; disulfide 5-23, 10-28, 14-30) | Low (A peptide classified as low indicates that the majority (over 75%) of the HPLC peak of the treated peptide disappeared as compared to the HPLC peak of the untreated peptide) | High (A peptide classified as high indicates that the majority (at least 75%) of the HPLC peak of the treated peptide is still present as compared to the HPLC peak of the untreated peptide)
5 | CC[C@H](C)[C@@H]1NC(=O)[C@H](CCCCN)NC(=O)[C@@H](NC(=O)[C@H](CCCCN)NC(=O)[C@@H](NC(=O)[C@H](CC(N)=O)NC(=O)[C@@H](NC(=O)[C@@H](NC(=O)[C@@H](NC(=O)CNC(=O)[C@H](CO)NC(=O)CN)C(C)C)[C@@H](C)CC)[C@@H](C)CC)C(C)C)CSSC[C@@H]2NC(=O)[C@H](CCCCN)NC(=O)CNC(=O)[C@H](Cc3ccccc3)NC(=O)[C@H](CCCNC(=N)N)NC(=O)[C@H](CCSC)NC(=O)CNC(=O)[C@H](C)NC(=O)[C@H](CCCCN)NC(=O)[C@H](CCCCN)NC(=O)[C@@H]3CSSC[C@@H](C(=O)N[C@H](C(=O)N4CCC[C@H]4C(=O)N[C@@H](CCCCN)C(=O)O)[C@@H](C)O)NC(=O)[C@H](Cc4c[nH]cn4)NC(=O)[C@H](CSSC[C@H](NC(=O)[C@H](CCC(N)=O)NC(=O)[C@H](CCCNC(=N)N)NC(=O)[C@H](CO)NC1=O)C(=O)N[C@@H](CC(C)C)C(=O)N[C@@H](CCC(=O)O)C(=O)N1CCC[C@H]1C(=O)N3)NC(=O)[C@H](CCCCN)NC(=O)CNC(=O)[C@H](CC(N)=O)NC(=O)[C@H](CCSC)NC2=O [compound 57] | High (A peptide classified as high indicates that the majority (at least 75%) of the HPLC peak of the treated peptide is still present as compared to the HPLC peak of the untreated peptide) | High (A peptide classified as high indicates that the majority (at least 75%) of the HPLC peak of the treated peptide is still present as compared to the HPLC peak of the untreated peptide)
6 | CC[C@H](C)[C@H](NC(=O)[C@H](CC(=O)O)NC(=O)[C@@H](NC(=O)[C@@H]1CCCN1C(=O)[C@H](CCCNC(=N)N)NC(=O)[C@H](CO)NC(=O)CN)[C@@H](C)O)C(=O)N[C@@H](CCCCN)C(=O)N[C@H]1CSSC[C@@H]2NC(=O)[C@H](CCCNC(=N)N)NC(=O)CNC(=O)[C@H](CC(N)=O)NC(=O)[C@H]([C@@H](C)O)NC(=O)[C@H](CCCCN)NC(=O)CNC(=O)[C@H](Cc3ccccc3)NC(=O)[C@H](CCCNC(=N)N)NC(=O)[C@H](CO)NC(=O)[C@H](CCCCN)NC(=O)[C@@H]3CSSC[C@@H](C(=O)N[C@@H](Cc4ccccc4)C(=O)O)NC(=O)[C@H](CC(=O)O)NC(=O)[C@H](CSSC[C@H](NC(=O)[C@H](CCC(N)=O)NC(=O)[C@H](Cc4ccc(O)cc4)NC(=O)[C@H](CO)NC(=O)[C@H](C)NC(=O)[C@H](CO)NC1=O)C(=O)N[C@@H](Cc1ccccc1)C(=O)N1CCC[C@H]1C(=O)N[C@@H](C(C)C)C(=O)N3)NC(=O)[C@H](CC(C)C)NC(=O)CNC(=O)[C@H](CC(N)=O)NC(=O)[C@H](C(C)C)NC2=O [compound 10] (H-GSRPTDIKCSASYQCFPVCKSRFGKTNGRCVNGLCDCF-OH; disulfide 9-30, 15-35, 19-37) | Low (A peptide classified as low indicates that the majority (over 75%) of the HPLC peak of the treated peptide disappeared as compared to the HPLC peak of the untreated peptide) | High (A peptide classified as high indicates that the majority (at least 75%) of the HPLC peak of the treated peptide is still present as compared to the HPLC peak of the untreated peptide)
